Measured values taken from US20050282205A1, “GLUT5 transporters expressed in cancer cells” (Xenoport, Inc., priority 2004, published 2005).

Biological target: T1, Human GLUT5 (Homo sapiens, UniProt P22732)
T1 construct: expressed in transfected cells; host or cells: Xenopus oocytes injected with in vitro transcribed GLUT5 cRNA
T1 sequence (P22732 1-501): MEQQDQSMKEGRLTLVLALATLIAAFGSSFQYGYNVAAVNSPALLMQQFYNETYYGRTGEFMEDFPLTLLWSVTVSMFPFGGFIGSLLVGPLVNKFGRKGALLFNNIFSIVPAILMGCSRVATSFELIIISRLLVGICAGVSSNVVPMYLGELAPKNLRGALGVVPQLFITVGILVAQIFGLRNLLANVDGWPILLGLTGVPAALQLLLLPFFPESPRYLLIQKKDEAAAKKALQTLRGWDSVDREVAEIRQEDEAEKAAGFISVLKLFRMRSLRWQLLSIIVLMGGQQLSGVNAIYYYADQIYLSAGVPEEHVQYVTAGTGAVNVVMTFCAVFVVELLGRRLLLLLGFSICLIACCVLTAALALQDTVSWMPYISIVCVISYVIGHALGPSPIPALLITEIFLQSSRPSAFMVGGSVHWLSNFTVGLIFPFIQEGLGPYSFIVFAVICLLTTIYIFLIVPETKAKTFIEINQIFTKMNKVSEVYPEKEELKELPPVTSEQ
Assay: 3H-fructose uptake in Xenopus oocytes expressing GLUT5
Type: cell-based
Details: Xenopus oocytes injected with GLUT5 cRNA, ND96 buffer, 3 minutes, scintillation counting (FIG. 2)
Method: To assess transport function of a specific transporter protein, it can be desirable to clone the cDNA and express the protein in cells that have low endogenous transport activity. Human GLUT5 was cloned by PCR, fully sequenced, and subcloned into plasmids that can be used for expression in mammalian cells or Xenopus oocytes. […] For expression in Xenopus oocytes, in vitro GLUT5 cRNA was prepared and injected into defoliculated oocytes.
Oocytes expressing GLUT5 or control oocytes not expressing GLUT5 were incubated in an oocyte ringers (ND96) buffer (90 mM NaCl, 10 mM HemiNa HEPES, 2 mM KCl, 1 mM MgCl, 1.8 mM CaCl2) containing 0.5% bovine serum albumin and 3H-fructose ([…]) for 3 minutes. Oocytes were washed and uptake of radiolabel quantified by scintillation counting.

## O=C(CO)[C@@H](O)[C@H](O)[C@H](O)CO [^3H-fructose, fructose]
  uptake of radiolabel into oocytes expressing GLUT5 versus noninjected controls: higher levels of ^3H-fructose uptake than noninjected controls
